In publication PMC10941181 (2024) one finds binding and Kd data, which are given here for 1 compound.

Experiment [1] concerns R2-Pu24T (G4 DNA) (DNA, G4) AGCACTCTAGCTCTATGAGGGTGGTGAGGGTGGGGAAGG
In words: 1H NMR imino shifts. As to conditions: K+, 10 mM potassium phosphate; pH 7.4, 298 K.

Experiment [2] has as its system Cy5-Pu24T G4 (DNA, G4) AGCACTCTAGCTCTATGAGGGTGGTGAGGGTGGGGAAGG
Nature of the experiment: microscale thermophoresis. As to conditions: 100 mM KCl, 10 mM potassium phosphate; pH 7.4, 0.05% Tween 20; 20 nM labelled DNA; GL 0.6 nM to 2.5 μM. Background: MST reads how a fluorescent partner responds to local heating, with and without ligand.

On to `Cc1cc(N2CCNCC2)nc(Nc2nc(C)c3ccc4c(c3n2)CCC4)n1`, for which, in experiment [1], the binding entry is on record as “yes”. Moreover, the dissociation constant Kd in experiment [2] was more than 0.2 µM.

One may read the Kd as a measure of binding affinity in units of concentration. Read a high Kd as lower affinity.
